What was measured:
[1] = system: collagen hydrogel (Type I, rat-tail); test: Step-strain rheological measurement, self-healing of collagen hydrogel
Experimental: Another important feature of the dynamic ECMs is their self-healing property, which can be tested using a step-strain rheological measurement. A strong strain is applied to liquify the materials, and the recovery of storage modulus is followed (self-healing) (Fig. 1b). Collagen hydrogel can only partially recover its storage modulus after the first cycle. The rate and extent of recovery were unchanged over the following cycles.
(§1) To minimize sample evaporation at 37 °C, a tissue paper wet in HEPEs buffer (10 mM, pH 7.8) was placed inside the H-PTD chamber to increase the humidity. […] The cone and plate were treated with plasma for 5 min to increase the hydrophilicity of the metal surface.

fibrin hydrogel = test: Stiffness (storage modulus) of fibrin gel by rheometer; conditions: for Storage Modulus Mean: fibrin gel
Experimental: as §1
Fibrin gel: Fibrinogen (Shanghai Laishi Xuezhipin Limited Company) was dissolved in PBS with a concentration of 22.2 mg mL^−1 overnight at room temperature with gentle shaking and aliquoted in protein low-binding tubes (45 µL per tube). […] Fifty microliters of thrombin (4 EU mL^−1 in PBS with 1.8 mM CaCl2) was added and pipetted up and down ten times. Then, it was transferred to the rheometer plate for measurement. […] For each condition, two independent experiments were performed (Fig. 1a and Supplementary Fig. 1).

## CypA: recombinant cyclophilin A, a PPIase, expressed in E. coli
[1]
  stiffness and extent of recovery in the self-healing process of collagen hydrogel: remarkably enhanced
Fibrin hydrogel; 1 µM CypA
  effect on storage modulus of fibrin hydrogel: remarkably enhanced
Fibrin hydrogel; 1 micromolar CypA, 3 min
  Storage Modulus Mean: 56.652 Pa
Fibrin hydrogel; 1 micromolar CypA, 3.5 min
  Storage Modulus Mean: 58.3965 Pa
Fibrin hydrogel; 1 micromolar CypA, 4 min
  Storage Modulus Mean: 59.006 Pa
Fibrin hydrogel; 1 micromolar CypA, 4.5 min
  Storage Modulus Mean: 60.5775 Pa
Fibrin hydrogel; 1 micromolar CypA, 5 min
  Storage Modulus Mean: 62.605 Pa
Fibrin hydrogel; 1 micromolar CypA, 6 min
  Storage Modulus Mean: 64.745 Pa
Fibrin hydrogel; 1 micromolar CypA, 6.5 min
  Storage Modulus Mean: 65.763 Pa
Fibrin hydrogel; 1 micromolar CypA, 7 min
  Storage Modulus Mean: 66.7405 Pa
Fibrin hydrogel; 1 micromolar CypA, 7.5 min
  Storage Modulus Mean: 67.652 Pa
Fibrin hydrogel; 1 micromolar CypA, 8 min
  Storage Modulus Mean: 68.8195 Pa
Fibrin hydrogel; 1 micromolar CypA, 8.5 min
  Storage Modulus Mean: 69.705 Pa
Fibrin hydrogel; 1 micromolar CypA, 9 min
  Storage Modulus Mean: 70.143 Pa
Fibrin hydrogel; 1 micromolar CypA, 9.5 min
  Storage Modulus Mean: 71.2125 Pa
Fibrin hydrogel; 1 micromolar CypA, 10 min
  Storage Modulus Mean: 72.402 Pa
Fibrin hydrogel; 1 micromolar CypA, 11 min
  Storage Modulus Mean: 74.113 Pa
Fibrin hydrogel; 1 micromolar CypA, 12 min
  Storage Modulus Mean: 75.428 Pa
Fibrin hydrogel; 1 micromolar CypA, 12.5 min
  Storage Modulus Mean: 75.9135 Pa
Fibrin hydrogel; 1 micromolar CypA, 13 min
  Storage Modulus Mean: 76.613 Pa
Fibrin hydrogel; 1 micromolar CypA, 14 min
  Storage Modulus Mean: 77.9915 Pa
Fibrin hydrogel; 1 micromolar CypA, 15 min
  Storage Modulus Mean: 78.877 Pa
Fibrin hydrogel; 3 micromolar CypA, 3 min
  Storage Modulus Mean: 56.9022 Pa
Fibrin hydrogel; 3 micromolar CypA, 3.5 min
  Storage Modulus Mean: 58.8285 Pa
Fibrin hydrogel; 3 micromolar CypA, 4 min
  Storage Modulus Mean: 60.4529 Pa
Fibrin hydrogel; 3 micromolar CypA, 5 min
  Storage Modulus Mean: 63.4816 Pa
Fibrin hydrogel; 3 micromolar CypA, 6 min
  Storage Modulus Mean: 65.1141 Pa
Fibrin hydrogel; 3 micromolar CypA, 6.5 min
  Storage Modulus Mean: 66.9921 Pa
Fibrin hydrogel; 3 micromolar CypA, 7 min
  Storage Modulus Mean: 68.0463 Pa
Fibrin hydrogel; 3 micromolar CypA, 7.5 min
  Storage Modulus Mean: 69.6441 Pa
Fibrin hydrogel; 3 micromolar CypA, 8 min
  Storage Modulus Mean: 70.5045 Pa
Fibrin hydrogel; 3 micromolar CypA, 8.5 min
  Storage Modulus Mean: 71.5921 Pa
Fibrin hydrogel; 3 micromolar CypA, 9 min
  Storage Modulus Mean: 72.9987 Pa
Fibrin hydrogel; 3 micromolar CypA, 9.5 min
  Storage Modulus Mean: 73.9279 Pa
Fibrin hydrogel; 3 micromolar CypA, 10 min
  Storage Modulus Mean: 75.4268 Pa
Fibrin hydrogel; 3 micromolar CypA, 11 min
  Storage Modulus Mean: 76.965 Pa
Fibrin hydrogel; 3 micromolar CypA, 12 min
  Storage Modulus Mean: 78.6581 Pa
Fibrin hydrogel; 3 micromolar CypA, 12.5 min
  Storage Modulus Mean: 79.6539 Pa
Fibrin hydrogel; 3 micromolar CypA, 13 min
  Storage Modulus Mean: 80.8472 Pa
Fibrin hydrogel; 3 micromolar CypA, 14 min
  Storage Modulus Mean: 81.859 Pa
Fibrin hydrogel; 3 micromolar CypA, 15 min
  Storage Modulus Mean: 84.0373 Pa
Fibrin hydrogel; 9 micromolar CypA, 3 min
  Storage Modulus Mean: 62.185 Pa
Fibrin hydrogel; 9 micromolar CypA, 3.5 min
  Storage Modulus Mean: 63.846 Pa
Fibrin hydrogel; 9 micromolar CypA, 4 min
  Storage Modulus Mean: 65.982 Pa
Fibrin hydrogel; 9 micromolar CypA, 4.5 min
  Storage Modulus Mean: 68.114 Pa
Fibrin hydrogel; 9 micromolar CypA, 5 min
  Storage Modulus Mean: 69.837 Pa
Fibrin hydrogel; 9 micromolar CypA, 6 min
  Storage Modulus Mean: 72.811 Pa
Fibrin hydrogel; 9 micromolar CypA, 6.5 min
  Storage Modulus Mean: 74.461 Pa
Fibrin hydrogel; 9 micromolar CypA, 7 min
  Storage Modulus Mean: 75.619 Pa
Fibrin hydrogel; 9 micromolar CypA, 7.5 min
  Storage Modulus Mean: 77.1405 Pa
Fibrin hydrogel; 9 micromolar CypA, 8 min
  Storage Modulus Mean: 78.5045 Pa
Fibrin hydrogel; 9 micromolar CypA, 8.5 min
  Storage Modulus Mean: 79.81 Pa
Fibrin hydrogel; 9 micromolar CypA, 9 min
  Storage Modulus Mean: 80.8145 Pa
Fibrin hydrogel; 9 micromolar CypA, 9.5 min
  Storage Modulus Mean: 82.609 Pa
Fibrin hydrogel; 9 micromolar CypA, 10 min
  Storage Modulus Mean: 83.584 Pa
Fibrin hydrogel; 9 micromolar CypA, 11 min
  Storage Modulus Mean: 86.0735 Pa
Fibrin hydrogel; 9 micromolar CypA, 12 min
  Storage Modulus Mean: 88.4775 Pa
Fibrin hydrogel; 9 micromolar CypA, 12.5 min
  Storage Modulus Mean: 89.3905 Pa
Fibrin hydrogel; 9 micromolar CypA, 13 min
  Storage Modulus Mean: 90.5025 Pa
Fibrin hydrogel; 9 micromolar CypA, 14 min
  Storage Modulus Mean: 91.758 Pa
Fibrin hydrogel; 9 micromolar CypA, 15 min
  Storage Modulus Mean: 94.897 Pa
Fibrin hydrogel; 9 micromolar CypA, 15.5 min
  Storage Modulus Mean: 96.242 Pa
Fibrin hydrogel; 20 micromolar CypA, 3 min
  Storage Modulus Mean: 48.845 Pa
Fibrin hydrogel; 20 micromolar CypA, 3.5 min
  Storage Modulus Mean: 49.5435 Pa
Fibrin hydrogel; 20 micromolar CypA, 4 min
  Storage Modulus Mean: 50.3955 Pa
Fibrin hydrogel; 20 micromolar CypA, 4.5 min
  Storage Modulus Mean: 50.963 Pa
Fibrin hydrogel; 20 micromolar CypA, 5 min
  Storage Modulus Mean: 51.714 Pa
Fibrin hydrogel; 20 micromolar CypA, 6 min
  Storage Modulus Mean: 52.522 Pa
Fibrin hydrogel; 20 micromolar CypA, 6.5 min
  Storage Modulus Mean: 53.309 Pa
Fibrin hydrogel; 20 micromolar CypA, 7 min
  Storage Modulus Mean: 53.9025 Pa
Fibrin hydrogel; 20 micromolar CypA, 7.5 min
  Storage Modulus Mean: 54.3695 Pa
Fibrin hydrogel; 20 micromolar CypA, 8 min
  Storage Modulus Mean: 54.713 Pa
Fibrin hydrogel; 20 micromolar CypA, 8.5 min
  Storage Modulus Mean: 55.308 Pa
Fibrin hydrogel; 20 micromolar CypA, 9 min
  Storage Modulus Mean: 55.0885 Pa
Fibrin hydrogel; 20 micromolar CypA, 9.5 min
  Storage Modulus Mean: 56.131 Pa
Fibrin hydrogel; 20 micromolar CypA, 10 min
  Storage Modulus Mean: 56.586 Pa
Fibrin hydrogel; 20 micromolar CypA, 11 min
  Storage Modulus Mean: 57.3845 Pa
Fibrin hydrogel; 20 micromolar CypA, 12 min
  Storage Modulus Mean: 58.3285 Pa
Fibrin hydrogel; 20 micromolar CypA, 12.5 min
  Storage Modulus Mean: 58.642 Pa
Fibrin hydrogel; 20 micromolar CypA, 14 min
  Storage Modulus Mean: 59.019 Pa
Fibrin hydrogel; 20 micromolar CypA, 15 min
  Storage Modulus Mean: 59.9075 Pa
Fibrin hydrogel; 20 micromolar CypA, 15.5 min
  Storage Modulus Mean: 60.0285 Pa

From PMC6370856, “Peptidyl prolyl cis/trans isomerase activity on the cell surface correlates with extracellular matrix development” (Communications Biology, 2019)
